Paper PMC4640066 (Nature Communications, 2015)

Molecular target: T1, γ-TuSC (Saccharomyces cerevisiae, UniProt P53378)
T1 construct: made in house; host or cells: HighFive insect cells
T1 sequence (P53378 1-473): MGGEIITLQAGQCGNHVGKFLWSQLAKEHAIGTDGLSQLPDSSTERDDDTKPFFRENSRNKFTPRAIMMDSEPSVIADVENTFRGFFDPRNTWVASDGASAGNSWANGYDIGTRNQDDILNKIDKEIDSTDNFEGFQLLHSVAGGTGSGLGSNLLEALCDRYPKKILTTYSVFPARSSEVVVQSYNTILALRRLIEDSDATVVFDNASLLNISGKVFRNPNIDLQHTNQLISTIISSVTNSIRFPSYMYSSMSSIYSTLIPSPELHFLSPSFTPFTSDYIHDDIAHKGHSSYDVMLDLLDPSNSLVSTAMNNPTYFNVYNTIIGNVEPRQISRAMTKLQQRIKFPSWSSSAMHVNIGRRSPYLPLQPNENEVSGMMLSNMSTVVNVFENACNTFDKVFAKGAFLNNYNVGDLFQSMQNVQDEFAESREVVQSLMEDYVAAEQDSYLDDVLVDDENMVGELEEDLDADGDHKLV
T1 sequence (P38863 1-823 partner): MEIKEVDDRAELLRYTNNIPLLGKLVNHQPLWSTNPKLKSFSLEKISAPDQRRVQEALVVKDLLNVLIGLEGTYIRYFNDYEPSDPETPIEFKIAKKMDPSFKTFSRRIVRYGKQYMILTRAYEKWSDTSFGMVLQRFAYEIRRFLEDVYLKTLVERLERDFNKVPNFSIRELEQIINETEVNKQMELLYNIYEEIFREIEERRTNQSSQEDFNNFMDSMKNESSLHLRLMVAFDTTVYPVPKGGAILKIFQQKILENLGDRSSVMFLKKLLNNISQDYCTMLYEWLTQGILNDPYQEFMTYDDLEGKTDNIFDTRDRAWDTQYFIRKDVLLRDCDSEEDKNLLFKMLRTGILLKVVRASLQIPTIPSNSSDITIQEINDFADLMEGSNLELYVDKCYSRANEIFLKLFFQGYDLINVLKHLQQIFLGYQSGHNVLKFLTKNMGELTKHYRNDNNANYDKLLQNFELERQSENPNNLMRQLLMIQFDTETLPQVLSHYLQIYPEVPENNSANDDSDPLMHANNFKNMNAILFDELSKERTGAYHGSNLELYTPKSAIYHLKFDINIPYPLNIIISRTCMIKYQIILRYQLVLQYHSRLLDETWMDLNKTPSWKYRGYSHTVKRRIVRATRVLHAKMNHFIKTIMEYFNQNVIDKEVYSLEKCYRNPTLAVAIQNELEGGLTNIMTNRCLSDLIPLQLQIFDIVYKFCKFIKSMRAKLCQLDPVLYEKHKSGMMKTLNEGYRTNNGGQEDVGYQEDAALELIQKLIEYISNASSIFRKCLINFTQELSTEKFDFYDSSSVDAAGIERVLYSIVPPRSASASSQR
T1 sequence (P53540 1-846 partner): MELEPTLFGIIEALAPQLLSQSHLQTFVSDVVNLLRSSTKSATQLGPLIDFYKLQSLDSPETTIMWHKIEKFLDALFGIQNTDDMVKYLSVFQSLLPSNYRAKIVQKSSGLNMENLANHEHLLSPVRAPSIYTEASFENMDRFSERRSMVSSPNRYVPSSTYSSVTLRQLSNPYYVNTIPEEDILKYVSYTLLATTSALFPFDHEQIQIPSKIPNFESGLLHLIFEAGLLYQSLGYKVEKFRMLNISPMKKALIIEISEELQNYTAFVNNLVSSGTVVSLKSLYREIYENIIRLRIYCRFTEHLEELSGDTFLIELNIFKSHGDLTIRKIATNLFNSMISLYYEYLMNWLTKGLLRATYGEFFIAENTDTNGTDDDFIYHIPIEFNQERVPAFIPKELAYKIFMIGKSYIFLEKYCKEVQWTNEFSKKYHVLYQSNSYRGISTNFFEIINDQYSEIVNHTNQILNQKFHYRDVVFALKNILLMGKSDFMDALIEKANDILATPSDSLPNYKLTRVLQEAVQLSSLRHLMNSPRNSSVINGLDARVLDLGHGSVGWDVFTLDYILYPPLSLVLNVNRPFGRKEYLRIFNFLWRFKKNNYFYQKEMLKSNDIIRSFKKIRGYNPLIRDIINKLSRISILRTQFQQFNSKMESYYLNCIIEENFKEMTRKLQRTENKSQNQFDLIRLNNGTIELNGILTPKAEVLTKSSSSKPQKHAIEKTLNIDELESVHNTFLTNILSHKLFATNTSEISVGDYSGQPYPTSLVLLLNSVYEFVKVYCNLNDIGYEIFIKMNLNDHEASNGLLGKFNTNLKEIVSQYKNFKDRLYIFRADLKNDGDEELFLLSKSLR
Assay: γ-TuSC capping to paclitaxel-stabilized MTs
Format: biochemical
Settings: 50 μM
Procedure: γ-TuSC was diluted in RB buffer containing 10 μM paclitaxel to reach a final protein concentration of 0.5 μM and incubated with 50 μM of gatastatin for 30 min at 25 °C. Polymerized MTs were prepared by incubation of ∼5 mg ml^−1 α/β-tubulin for 30 min at 37 °C with 1 mM GTP; then paclitaxel was added (final 10 μM). GTP was removed from paclitaxel-stabilized MTs with ultracentrifugation at 240,000g for 10 min at 25 °C. Paclitaxel-stabilized MTs were added to γ-TuSC (final ∼1.2 mg ml^−1). Next, γ-TuSC was incubated with paclitaxel-stabilized MTs for 30 min; MTs and MT-bound γ-TuSC were collected with ultracentrifugation at 240,000g for 10 min at 25 °C and finally placed on poly-L-lysine-coated coverslips. After incubation for 15 min, coverslips were immediately fixed with cold MeOH (−20 °C). Coverslips were blocked with PBS containing 0.5% bovine serum albumin and were incubated with anti-α-tubulin (1:200 dilution, MBL, Cat# PM054) and anti-penta His (1:200 dilution, Qiagen, Cat# 34660) antibodies. After staining with Alexa^488-conjugated anti-rabbit IgG (1:2000 dilution, Invitrogen) and Alexa^568-conjugated anti-mouse IgG (1:2000 dilution, Invitrogen), the coverslips were washed four times with PBS and mounted with PBS. γ-TuSC bound to MTs was observed under a LAS AF 6000 fluorescence microscope (Leica Microsystems, Wetzlar, Germany).

COc1cc2c(=O)c(-c3cc(OC)c4c(c3OC)OCO4)coc2cc1OCc1ccccc1 [Gatastatin, O^7-demethylbenzyl AG1]
Effect on γ-TuSC binding to MT ends: impaired γ-TuSC binding to MT ends
